According to ChEMBL document CHEMBL4706603, “Discovery of VEGFR-2 inhibitors exerting significant anticancer activity against CD44+ and CD133+ cancer stem cells (CSCs): Reversal of TGF-β induced epithelial-mesenchymal transition (EMT) in hepatocellular carcinoma” (Eur J Med Chem, 2020):
Activity calls are given as the source filed them. The rule behind the calls is not given here.

Assays:
MDA-MB-231 [1] = experiment: Cytotoxicity against human MDA-MB-231 cells assessed as reduction in cell viability incubated for 24 hrs by MTT assay; format: functional, cell-based
HepG2 [2] = experiment: Cytotoxicity against human HepG2 cells assessed as reduction in cell viability by trypan blue assay; format: functional, cell-based
MDA-MB-231 [3] = experiment: Induction of apoptosis in human MDA-MB-231 cells assessed as viable cells at IC50 incubated for 72 hrs by Alexa Fluor488-annexin V/PI staining based flow cytometric analysis (Rvb= 99.4 %); format: functional
MDA-MB-231 [4] = experiment: Induction of apoptosis in human MDA-MB-231 cells assessed as necrotic cells at IC50 incubated for 72 hrs by Alexa Fluor488-annexin V/PI staining based flow cytometric analysis (Rvb= 0.0 %); format: functional
HepG2 [5] = experiment: Induction of apoptosis in human HepG2 cells assessed as apoptotic index at IC50 incubated for 24 hrs by EtBr/AO staining based fluorescence microscopic analysis (reference value: 1.99 %); format: functional
HepG2 [6] = experiment: Induction of ROS production in human HepG2 cells at IC50 incubated for 3 hrs by fluorescence microscopic analysis; format: functional, cell-based
MCF7 = experiment: Antimigratory activity against human MCF7 cells assessed as wound healing at IC50 incubated for 24 hrs by inverted microscopic analysis (reference value: 27.64 %); format: functional
Chorioallantoic membrane [7] = experiment: Antiangiogenic activity in chicken fertilized egg chorioallantoic membrane measured upto 72 hrs by CAM assay; format: functional, tissue-based; conditions: Gallus gallus, dose 0.01-2 µM, time hrs <=72
Chorioallantoic membrane [8] = experiment: Antiangiogenic activity in chicken fertilized egg chorioallantoic membrane assessed as reduction in membrane growth at 0.01 uM measured upto 72 hrs by CAM assay relative to control; format: functional, tissue-based; conditions: Gallus gallus, time hrs <=72
HUVEC = experiment: Antiproliferative activity against human HUVEC assessed as reduction in cell viability incubated for 24 hrs by MTT assay; format: functional, cell-based
[9] = Inhibition of VEGF expression in human HUVEC assessed as mean fluorescence intensity at IC50 incubated for 48 hrs by FITC based flow cytometry analysis (reference value: 53.91+/- 0.95); format: functional
[10] = Inhibition of VEGFR2 expression in human HUVEC assessed as mean fluorescence intensity at IC50 incubated for 48 hrs by FITC based flow cytometry analysis (reference value: 49.24 +/- 0.47); format: functional
[11] = Inhibition of VEGF expression in human HUVEC at IC50 incubated for 48 hrs by FITC based flow cytometry analysis relative to control; format: functional
HepG2 [12] = experiment: Antiproliferative activity against human HepG2 cells harboring CD133+ assessed as reduction in cell viability incubated for 24 hrs by MTT assay; format: functional, cell-based
HepG2 [13] = experiment: Induction of cell cycle arrest in human HepG2 cells harboring CD133+ assessed as increase in S phase arrest at IC50 concentration incubated for 48 hrs by PI staining based flow cytometry analysis; format: functional
[14] = Toxicity in female Wistar rat assessed as roughened fur at 2000 mg/kg, po observed for 48 hrs; format: organism-based; conditions: in vivo
[15] = Toxicity in female Wistar rat assessed as hard abdomen at 2000 mg/kg, po observed for 48 hrs; format: organism-based; conditions: in vivo
[16] = Toxicity in female Wistar rat assessed as difficult to breathe at 2000 mg/kg, po observed for 48 hrs; format: organism-based; conditions: in vivo
[17] = Toxicity in Wistar rat assessed as body weight loss at 2000 mg/kg, po and observed for 1 week; format: organism-based; conditions: in vivo, 168 h, time 1 weeks
[18] = Toxicity in Wistar rat assessed as effect on SGOT level at 5 to 2000 mg/kg, po and measured on day 15; format: organism-based; conditions: in vivo, 360 h, dose 5-2000 mg/kg, time 15 day
[19] = Toxicity in Wistar rat assessed as effect on urea level in serum at 5 to 2000 mg/kg, po and measured on day 15; format: organism-based; conditions: in vivo, 360 h, dose 5-2000 mg/kg, time 15 day
[20] = Toxicity in Wistar rat assessed as effect on relative weight of lungs at 5 to 2000 mg/kg, po and measured on day 15; format: organism-based; conditions: in vivo, 360 h, dose 5-2000 mg/kg, time 15 day
[21] = Toxicity in Wistar rat assessed as normal liver parenchyma with normal hepatocytes arranged in hepatic strands and normal vascular tissue and bile duct without inflammatory or pathological changes at 2000 mg/kg, po and measured on day 15 by microscopic analysis; format: organism-based; conditions: in vivo, 360 h, time 15 day
[22] = Toxicity in Wistar rat assessed as normal renal parenchyma with intact renal tubules and glomeruli without inflammatory or pathological changes at 2000 mg/kg, po and measured on day 15 by microscopic analysis; format: organism-based; conditions: in vivo, 360 h, time 15 day
[23] = Toxicity in Wistar rat assessed as normal cardiac muscles and cardiac fibers with intact length without inflammatory changes at 2000 mg/kg, po and measured on day 15 by microscopic analysis; format: organism-based; conditions: in vivo, 360 h, time 15 day
[24] = Tmax in Wistar rat at 5 mg/kg, po measured upto 72 hrs by HPLC-MS analysis; format: ADME, organism-based; conditions: in vivo
[25] = AUC (0 to 72 hrs) in Wistar rat at 5 mg/kg, po measured upto 72 hrs by HPLC-MS analysis; format: ADME, organism-based; set-up: route oral, dose 5 mg/kg, time <=72; conditions: in vivo
[26] = AUC (0 to infinity) in Wistar rat at 5 mg/kg, po by HPLC-MS analysis; format: ADME, organism-based; set-up: route oral, time infinity, dose 5 mg/kg; conditions: in vivo
[27] = AUMC (0 to infinity) in Wistar rat at 5 mg/kg, po by HPLC-MS analysis; format: ADME, organism-based; conditions: in vivo
[28] = MRT in Wistar rat at 5 mg/kg, po measured upto 72 hrs by HPLC-MS analysis; format: ADME, organism-based; conditions: in vivo
HepG2 [29] = experiment: Induction of apoptosis in human HepG2 cells assessed as late apoptotic cells by measuring orange coloured nucleus at IC50 incubated for 24 hrs by EtBr/AO staining based fluorescence microscopic analysis; format: functional, cell-based
HepG2 [30] = experiment: Induction of apoptosis in human HepG2 cells assessed as necrotic cells by measuring orange-red coloured flourescence at IC50 incubated for 24 hrs by EtBr/AO staining based fluorescence microscopic analysis; format: functional, cell-based
[31] = Toxicity in Wistar rat assessed as effect on relative weight of liver at 5 to 2000 mg/kg, po and measured on day 15; format: organism-based; conditions: in vivo, 360 h, dose 5-2000 mg/kg, time 15 day
[32] = Toxicity in Wistar rat assessed as effect on relative weight of spleen at 5 to 2000 mg/kg, po and measured on day 15; format: organism-based; conditions: in vivo, 360 h, dose 5-2000 mg/kg, time 15 day
[33] = Toxicity in Wistar rat assessed as effect on relative weight of kidney at 5 to 2000 mg/kg, po and measured on day 15; format: organism-based; conditions: in vivo, 360 h, dose 5-2000 mg/kg, time 15 day
[34] = Toxicity in Wistar rat assessed as effect on relative weight of heart at 5 to 2000 mg/kg, po and measured on day 15; format: organism-based; conditions: in vivo, 360 h, dose 5-2000 mg/kg, time 15 day
[35] = Toxicity in po dosed Wistar rat; format: organism-based; conditions: in vivo
[36] = Toxicity in Wistar rat assessed as normal ovary with primary to tertiary developing follicles and mature follicles at 2000 mg/kg, po and measured on day 15 by microscopic analysis; format: organism-based; conditions: in vivo, 360 h, time 15 day
HepG2 [37] = experiment: Induction of DNA damage in human HepG2 cells assessed as increase in length of comet tail with decrease in nuclear DNA content with complete DNA damage at IC50 incubated for 24 hrs by Comet assay; format: functional, cell-based

SMILES: CC(=O)Nc1ccc(Oc2cccc3c(NC(=O)Nc4cccc(C(F)(F)F)c4)cccc23)cc1
- inhibition (MDA-MB-231 [1]): Dose-dependent effect
- IC50 (MDA-MB-231 [1]; MDA-MB-231, 24 h): 1410 nM
- IC50 (HepG2 [2]): 1170 nM
- inhibition (HepG2 [2]): Dose-dependent effect
- Activity (MDA-MB-231 [3]): 27.3%
- Activity (MDA-MB-231 [4]): 0.3%
- Activity (HepG2 [5]): 86.66%
- Activity (HepG2 [6]): Active
- Activity (MCF7): 3.02%
- Activity (Chorioallantoic membrane [7]): Dose-dependent effect
- inhibition (Chorioallantoic membrane [8]): > 50%
- IC50 (HUVEC): 9640 nM
- inhibition (HUVEC): Dose-dependent effect
- Flu intensity [9]: 21.41
- Flu intensity [10]: 18.41
- fold change (FC) [11]: 0.39
- inhibition (HepG2 [12]): Dose-dependent effect
- IC50 (HepG2 [12]; HepG2, 24 h): 2200 nM
- Activity (HepG2 [13]): Active
- Activity [14]: Toxic
- Activity [15]: Toxic
- Activity [16]: Toxic
- Activity [17]: Toxic
- Activity [18]: Non-Toxic
- Activity [19]: Non-Toxic
- Activity [20]: Non-Toxic
- Activity [21]: Non-Toxic
- Activity [22]: Non-Toxic
- Activity [23]: Non-Toxic
- Tmax [24]: 6 h
- AUC(0-t) [25]: 621 µg·h/mL
- AUC(0-inf) [26]: 625 µg·h/mL
- AUMC [27]: 8929.284 ug/ml.hr^2
- MRT [28]: 14.3 h
- Activity (HepG2 [29]): Active
- Activity (HepG2 [30]): Active
- Activity [31]: Non-Toxic
- Activity [32]: Non-Toxic
- Activity [33]: Non-Toxic
- Activity [34]: Non-Toxic
- LD50 [35]: > 2000 mg/kg
- Activity [36]: Non-Toxic
- Activity (HepG2 [37]): Active
